tested on: KRas G12D-mediated phosphorylation of ERK; assay: Inhibition of KRas G12D-mediated phosphorylation of ERK in AGS cells; assay type: cell-based; conditions: Homo sapiens; AGS cells expressing G12D, 3 hours, phospho-ERK normalized to GAPDH
Method in brief: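 In-cell Western: p-ERK Thr202/Tyr204 signal over GAPDH, as % of DMSO control, with IC50 from a 4-parameter curve. AGS cells seeded 40,000/well for 12-14 h, exposed to compound 3 h at 0.5% DMSO final, then formaldehyde-fixed and methanol-permeabilized.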

Question: How did the IC50 turn out when `CCc1cccc2cncc(-c3ncc4c(N5CC6CCC(C5)N6)nc(OCC56CCCN5C[C@H](F)C6)nc4c3F)c12` (mixture of isomers) [Example 324, 4-((1R,5S)-3,8-diazabicyclo[3.2.1]octan-3-yl)-7-(5-ethylisoquinolin-4-yl)-8-fluoro-2-((2-fluorotetrahydro-1H-pyrrolizin-7a(5H)-yl)methoxy)pyrido[4,3-d]pyrimidine] was run?
Answer: 864 nM

Question: For `CC#Cc1cccc2cccc(-c3ncc4c(N5C[C@H]6CC[C@@H](C5)N6)nc(OCC56CCCN5CCC6)nc4c3F)c12` [Example 195, 4-((1R,5S)-3,8-diazabicyclo[3.2.1]octan-3-yl)-8-fluoro-7-(8-(prop-1-yn-1-yl)naphthalen-1-yl)-2-((tetrahydro-1H-pyrrolizin-7a(5H)-yl)methoxy)pyrido[4,3-d]pyrimidine], which IC50 is on record?
Answer: 2460 nM

Question: For `Cc1nccn1CCOc1nc(N2CC3CCC(C2)N3)c2cnc(-c3cc(O)cc4ccccc34)c(F)c2n1` [Example 84, 4-(4-((1R,5S)-3,8-diazabicyclo[3.2.1]octan-3-yl)-8-fluoro-2-(2-(2-methyl-1H-imidazol-1-yl)ethoxy)pyrido[4,3-d]pyrimidin-7-yl)naphthalen-2-ol], which IC50 is on record?
Answer: 5720 nM

Question: For `Fc1c(-c2c(OC(F)(F)F)ccc3[nH]ncc23)ncc2c(N3C[C@H]4CC[C@@H](C3)N4)nc(OCC34CCCN3CCC4)nc12` [Example 258, 4-((1R,5S)-3,8-diazabicyclo[3.2.1]octan-3-yl)-8-fluoro-2-((hexahydro-1H-pyrrolizin-7a-yl)methoxy)-7-(5-(trifluoromethoxy)-1H-indazol-4-yl)pyrido[4,3-d]pyrimidine], which IC50 is on record?
Answer: 1460 nM

Question: With `CN1CCC[C@H]1COc1nc(N2C[C@H]3CC[C@@H](C2)N3)c2cnc(-c3cc(O)cc4ccccc34)c(Cl)c2n1` [Example 191, 4-(4-((1R,5S)-3,8-diazabicyclo[3.2.1]octan-3-yl)-8-chloro-2-(((S)-1-methylpyrrolidin-2-yl)methoxy)pyrido[4,3-d]pyrimidin-7-yl)naphthalen-2-ol] as the compound, how does the IC50 read?
Answer: 5050 nM

Question: With `CC(Oc1nc(N2C[C@H]3CC[C@@H](C2)N3)c2cnc(-c3cc(O)cc4ccccc34)c(F)c2n1)C1CCCN1C` (stereo partly drawn) [Example 27, 4-(4-((1R,5S)-3,8-diazabicyclo[3.2.1]octan-3-yl)-8-fluoro-2-(1-(1-methylpyrrolidin-2-yl)ethoxy)pyrido[4,3-d]pyrimidin-7-yl)naphthalen-2-ol] as the compound, how does the IC50 read?
Answer: 1280 nM

Question: Which IC50 does the source give for `Oc1cc(-c2ncc3c(N4C[C@H]5CC[C@@H](C4)N5)nc(OC[C@@H]4CC5CCN4C5)nc3c2F)c2ccccc2c1` [Example 40, 4-(2-(((2S)-1-azabicyclo[2.2.1]heptan-2-yl)methoxy)-4-((1R,5S)-3,8-diazabicyclo[3.2.1]octan-3-yl)-8-fluoropyrido[4,3-d]pyrimidin-7-yl)naphthalen-2-ol] here?
Answer: 4240 nM

Question: Which IC50 does the source give for `COCCCN1CCC(Oc2nc(N3C[C@H]4CC[C@@H](C3)N4)c3cnc(-c4cc(O)cc5ccccc45)c(F)c3n2)CC1` [Example 41, 4-(4-((1R,5S)-3,8-diazabicyclo[3.2.1]octan-3-yl)-8-fluoro-2-((1-(3-methoxypropyl)piperidin-4-yl)oxy)pyrido[4,3-d]pyrimidin-7-yl)naphthalen-2-ol] here?
Answer: 6650 nM

Question: How did the IC50 turn out when `C#Cc1cccc2cncc(-c3ncc4c(N5C[C@H]6CC[C@@H](C5)N6)nc(OC[C@]56CCCN5C[C@@H](F)C6)nc4c3F)c12` [Example 204, 4-((1R,5S)-3,8-diazabicyclo[3.2.1]octan-3-yl)-7-(5-ethynylisoquinolin-4-yl)-8-fluoro-2-(((2S,7aR)-2-fluorotetrahydro-1H-pyrrolizin-7a(5H)-yl)methoxy)pyrido[4,3-d]pyrimidine] was run?
Answer: 307 nM

Question: `O[C@@H]1C[C@@H]2CN(c3nc(N4CCC4)nc4c(F)c(-c5cccc6cccc(Cl)c56)ncc34)C[C@H]1N2` [Example 152, (1R,5R,6R)-3-(2-(azetidin-1-yl)-7-(8-chloronaphthalen-1-yl)-8-fluoropyrido[4,3-d]pyrimidin-4-yl)-3,8-diazabicyclo[3.2.1]octan-6-ol] was tested. Which IC50 did it give?
Answer: > 50000 nM

Question: `C#CCc1ccc(O)cc1-c1ncc2c(N3C[C@H]4CC[C@@H](C3)N4)nc(OCC34CCCN3CCC4)nc2c1F` [Example 279, 3-(4-((1R,5S)-3,8-diazabicyclo[3.2.1]octan-3-yl)-8-fluoro-2-((hexahydro-1H-pyrrolizin-7a-yl)methoxy)pyrido[4,3-d]pyrimidin-7-yl)-4-(prop-2-yn-1-yl)phenol] was tested. Which IC50 did it give?
Answer: 7400 nM

Question: How did the IC50 turn out when `Oc1cc(-c2ncc3c(N4C[C@H]5CC[C@@H](C4)N5)nc(OC[C@@]45CCCN4C[C@H](F)C5)nc3c2F)c2c(F)cccc2c1` [Example 282, 4-(4-((1R,5S)-3,8-diazabicyclo[3.2.1]octan-3-yl)-8-fluoro-2-(((2R,7aS)-2-fluorohexahydro-1H-pyrrolizin-7a-yl)methoxy)pyrido[4,3-d]pyrimidin-7-yl)-5-fluoronaphthalen-2-ol] was run?
Answer: 4.9 nM

Question: For `Fc1ccc2cccc(-c3ncc4c(N5CC6CCC(C5)N6)nc(OC[C@@]56CCCN5C[C@H](F)C6)nc4c3F)c2c1Cl` (racemic) [Example 336, 4-((1R,5S)-3,8-diazabicyclo[3.2.1]octan-3-yl)-7-(8-chloro-7-fluoronaphthalen-1-yl)-8-fluoro-2-((2-fluorotetrahydro-1H-pyrrolizin-7a(5H)-yl)methoxy)pyrido[4,3-d]pyrimidine], which IC50 is on record?
Answer: 1060 nM

Question: With `CN1CCC[C@H]1COc1nc(N2C[C@H]3CC[C@@H](C2)N3)c2cnc(-c3cccc4c3C3(CC4)CC3)c(F)c2n1` [Example 162, 4-((1R,5S)-3,8-diazabicyclo[3.2.1]octan-3-yl)-7-(2′,3′-dihydrospiro[cyclopropane-1,1′-inden]-7′-yl)-8-fluoro-2-(((S)-1-methylpyrrolidin-2-yl)methoxy)pyrido[4,3-d]pyrimidine bis(2,2,2-trifluoroacetate)] as the compound, how does the IC50 read?
Answer: > 16700 nM

Question: For `CCO[C@@H]1C[C@@H](COc2nc(N3C[C@H]4CC[C@@H](C3)N4)c3cnc(-c4cccc5cccc(Cl)c45)c(F)c3n2)N(C)C1` [Example 43, 4-((1R,5S)-3,8-diazabicyclo[3.2.1]octan-3-yl)-7-(8-chloronaphthalen-1-yl)-2-(((2S,4R)-4-ethoxy-1-methylpyrrolidin-2-yl)methoxy)-8-fluoropyrido[4,3-d]pyrimidine], which IC50 is on record?
Answer: 6200 nM

Question: For `C#Cc1cccc2cc(OC)cc(-c3ncc4c(N5C[C@H]6CC[C@@H](C5)N6)nc(OCC56CCCN5CCC6)nc4c3F)c12` [Example 231, 4-((1R,5S)-3,8-diazabicyclo[3.2.1]octan-3-yl)-7-(8-ethynyl-3-methoxynaphthalen-1-yl)-8-fluoro-2-((hexahydro-1H-pyrrolizin-7a-yl)methoxy)pyrido[4,3-d]pyrimidine], which IC50 is on record?
Answer: 2810 nM

Question: For `C#Cc1c(F)ccc2cc(O)cc(-c3ncc4c(N5C[C@H]6CC[C@@H](C5)N6)nc(OCC56CCCN5CCC6)nc4c3F)c12` [Example 232, 4-(4-((1R,5S)-3,8-diazabicyclo[3.2.1]octan-3-yl)-8-fluoro-2-((tetrahydro-1H-pyrrolizin-7a(5H)-yl)methoxy)pyrido[4,3-d]pyrimidin-7-yl)-5-ethynyl-6-fluoronaphthalen-2-ol], which IC50 is on record?
Answer: 15.2 nM

Question: Which IC50 does the source give for `O=C1OCCN1C[C@H]1CC[C@@]2(COc3nc(N4CC5CCC(C4)N5)c4cnc(-c5cccc6cccc(Cl)c56)c(F)c4n3)CCCN12` [Example 442, 3-(((3R,7aR)-7a-(((4-(3,8-diazabicyclo[3.2.1]octan-3-yl)-7-(8-chloronaphthalen-1-yl)-8-fluoropyrido[4,3-d]pyrimidin-2-yl)oxy)methyl)hexahydro-1H-pyrrolizin-3-yl)methyl)oxazolidin-2-one] here?
Answer: 1160 nM

Question: How did the IC50 turn out when `O=C(OC[C@H]1CC[C@@]2(COc3nc(N4CC5CCC(C4)N5)c4cnc(-c5cccc6cccc(Cl)c56)c(F)c4n3)CCCN12)N1CCOCC1` [Example 445, ((3R,7aR)-7a-(((4-(3,8-diazabicyclo[3.2.1]octan-3-yl)-7-(8-chloronaphthalen-1-yl)-8-fluoropyrido[4,3-d]pyrimidin-2-yl)oxy)methyl)hexahydro-1H-pyrrolizin-3-yl)methyl morpholine-4-carboxylate] was run?
Answer: 130 nM

Question: For `Fc1c(-c2cccc3c2CC2CC32)ncc2c(N3CC4CCC(C3)N4)nc(OC[C@@]34CCCN3C[C@H](F)C4)nc12` (stereo partly drawn) [Example 438, 4-(3,8-diazabicyclo[3.2.1]octan-3-yl)-8-fluoro-2-(((2R,7aS)-2-fluorotetrahydro-1H-pyrrolizin-7a(5H)-yl)methoxy)-7-(1,1a,6,6a-tetrahydrocyclopropa[a]inden-5-yl)pyrido[4,3-d]pyrimidine], which IC50 is on record?
Answer: 1630 nM

Question: For `CC1CCc2cccc(-c3ncc4c(N5CC6CCC(C5)N6)nc(OC[C@@H]5CCCN5C)nc4c3F)c21` (stereo partly drawn) [Example 174, 4-((1R,5S)-3,8-diazabicyclo[3.2.1]octan-3-yl)-8-fluoro-7-(3-methyl-2,3-dihydro-1H-inden-4-yl)-2-(((S)-1-methylpyrrolidin-2-yl)methoxy)pyrido[4,3-d]pyrimidine], which IC50 is on record?
Answer: 12800 nM

Question: Which IC50 does the source give for `Oc1cc(-c2ncc3c(N4C[C@H]5CC[C@@H](C4)N5)nc(OCCc4ccccn4)nc3c2F)c2ccccc2c1` [Example 4, 4-(4-((1R,5S)-3,8-diazabicyclo[3.2.1]octan-3-yl)-8-fluoro-2-(2-(pyridin-2-yl)ethoxy)pyrido[4,3-d]pyrimidin-7-yl)naphthalen-2-ol] here?
Answer: 8530 nM

Question: How did the IC50 turn out when `NCC#Cc1cccc2cccc(-c3ncc4c(N5C[C@H]6CC[C@@H](C5)N6)nc(OCC56CCCN5CCC6)nc4c3F)c12` [Example 241, 3-(8-(4-((1R,5S)-3,8-diazabicyclo[3.2.1]octan-3-yl)-8-fluoro-2-((tetrahydro-1H-pyrrolizin-7a(5H)-yl)methoxy)pyrido[4,3-d]pyrimidin-7-yl)naphthalen-1-yl)prop-2-yn-1-amine] was run?
Answer: > 16700 nM

Question: `CO[C@@H]1C[C@@H]2CN(c3nc(OC[C@@]45CCCN4C[C@H](F)C5)nc4c(F)c(-c5cccc6cccc(Cl)c56)ncc34)C[C@H]1N2` [Example 397, 7-(8-chloronaphthalen-1-yl)-8-fluoro-2-((2-fluorotetrahydro-1H-pyrrolizin-7a(5H)-yl)methoxy)-4-((1R,5R,6R)-6-methoxy-3,8-diazabicyclo[3.2.1]octan-3-yl)pyrido[4,3-d]pyrimidine] was tested. Which IC50 did it give?
Answer: > 16700 nM

From patent US11453683B1, “KRas G12D inhibitors” (Mirati Therapeutics, Inc., priority 2019, dated 2022)
